Structures are written as SMILES.

One test deals with HEK293 cells. The experiment in a line: HEK293 VLCFA-LPC IC50 determination (13C-labeled C26:0 LPC by UHPLC/MS). It counts as cell-based, human. Conditions: Homo sapiens, HEK293, 48 h, average of one or more replicates; 13C-labeled C26:0 LPC, 48 hours; read-out: Average HEK293 IC50. The gist of the method: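 Suspension HEK293 cells (final 0.5 million/mL after mixing with equal volume) incubated 48 hours with compound plus 13C-acetate (1.0 mg/mL in added media), shaking at 37° C. Lipids extracted with hexane/isopropanol or methanol, C13:0 LPC standard. UHPLC/MS of 13C-labeled C26:0 LPC (638.500/104.100 m/z); IC50 by four-parameter fit.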
For the molecule `O=C(Nc1ccn(-c2ccsn2)n1)C1(c2ccccc2F)CC1` [Compound 402, 1-(2-fluorophenyl)-N-(1-isothiazol-3-ylpyrazol-3-yl)cyclopropanecarboxamide], the IC50 was determined as 0.06 µM.
The same measure, in the same setting: the value for `Cc1cc(-n2ccc(NC(=O)C3(c4ccccc4F)CC3)n2)sn1` [Compound 401, 1-(2-fluorophenyl)-N-[1-(3-methylisothiazol-5-yl)pyrazol-3-yl]cyclopropanecarboxamide] was 2.3 µM; that for `COc1ccc(-n2ccc(NC(=O)C3(c4ccccc4F)CC3)n2)cc1F` [Compound 322, N-[1-(3-fluoro-4-methoxy-phenyl)pyrazol-3-yl]-1-(2-fluorophenyl)cyclopropanecarboxamide] was 4 µM.
For `O=C(Nc1ccn(-c2ncncc2F)n1)C1(c2ccccc2F)CC1` [Compound 361, 1-(2-fluorophenyl)-N-[1-(5-fluoropyrimidin-4-yl)pyrazol-3-yl]cyclopropanecarboxamide], the 50% inhibitory concentration (IC50) is 0.15 µM.

Staying with this test, now noted: Homo sapiens, HEK293, HEK293 cells; average of one or more replicates; read-out: Average HEK293 IC50.
On to `COc1ncc(-n2ccc(NC(=O)C3(c4ncccc4F)CC3(C)C)n2)cc1F` (stereo not drawn) [Compound 517, N-[1-(5-fluoro-6-methoxy-3-pyridyl)pyrazol-3-yl]-1-(3-fluoro-2-pyridyl)-2,2-dimethyl-cyclopropanecarboxamide], for which the IC50 turned out to be 1.1 µM.
Still for that read-out and setting: the value for `O=C(Nc1ccn(-c2ccncc2)n1)C1(c2cnccn2)CC1` [Compound 495, 1-pyrazin-2-yl-N-[1-(4-pyridyl)pyrazol-3-yl]cyclopropanecarboxamide] was above 5 µM.
With `O=C(Nc1ccn(-c2cc(F)cc(F)c2)n1)C1(c2ccccc2F)CC1` [Compound 301, N-[1-(3,5-difluorophenyl)pyrazol-3-yl]-1-(2-fluorophenyl)cyclopropanecarboxamide], the IC50 came to 0.14 µM.
`O=C(Nc1ccn(-c2ccccc2)n1)C1(c2cccs2)CC1` [Compound 474, N-(1-phenylpyrazol-3-yl)-1-(2-thienyl)cyclopropanecarboxamide]: the IC50 worked out at 0.019 µM.
On the same count and under the same terms, the result for `O=C(Nc1ccn(-c2ccccc2)n1)C(c1ccccc1)C1CC1` (stereo not drawn) [Compound 179, 2-cyclopropyl-2-phenyl-N-(1-phenylpyrazol-3-yl)acetamide] reads 1.6 µM.
Same read-out and setting: the result for `O=C(Cn1cccc1)Nc1ccn(-c2ccccc2)n1` [Compound 297, N-(1-phenylpyrazol-3-yl)-2-pyrrol-1-yl-acetamide] reads 1.8 µM; that for `CC(C)(C(=O)Nc1ccn(-c2ccccc2)n1)c1ccccn1` [Compound 476, 2-methyl-N-(1-phenylpyrazol-3-yl)-2-(2-pyridyl)propanamide], 0.53 µM; that for `O=C(Nc1ccn(-c2ccccc2)n1)C1(c2ccccc2)CCCC1` [Compound 34, 1-phenyl-N-(1-phenylpyrazol-3-yl)cyclopentanecarboxamide], 2.1 µM.
`O=C(Cc1cnccn1)Nc1ccn(-c2ccccc2)n1` [Compound 219, N-(1-phenylpyrazol-3-yl)-2-pyrazin-2-yl-acetamide]: the IC50 is above 5 µM.
Still for that read-out and setting: the value for `CC(C(=O)Nc1ccn(-c2ccccc2)n1)c1ccccc1` (stereo not drawn) [Compound 80, 2-phenyl-N-(1-phenylpyrazol-3-yl)propanamide] was 0.047 µM; that for `O=C(Cc1ccc(F)cc1F)Nc1ccn(-c2ccccc2)n1` [Compound 18, 2-(2,4-difluorophenyl)-N-(1-phenylpyrazol-3-yl)acetamide] was 0.26 µM.
Still for that read-out and setting: the value for `O=C(Nc1ccn(-c2ccnc(F)c2)n1)C1(c2c(F)cccc2Cl)CC1` [Compound 274, 1-(2-chloro-6-fluorophenyl)-N-(1-(2-fluoropyridin-4-yl)-1H-pyrazol-3-yl)cyclopropane-1-carboxamide] was 0.037 µM; that for `COc1cccc(CC(=O)Nc2ccn(-c3ccccc3)n2)c1OC` [Compound 7, 2-(2,3-dimethoxyphenyl)-N-(1-phenylpyrazol-3-yl)acetamide] was above 5 µM; that for `[2H]C1([2H])C([2H])([2H])C1(C(=O)Nc1ccn(-c2ccnc(F)c2)n1)c1ccccc1F` [Compound 276, 2,2,3,3-tetradeuterio-1-(2-fluorophenyl)-N-[1-(2-fluoro-4-pyridyl)pyrazol-3-yl]cyclopropanecarboxamide] was 0.011 µM.
Still for that read-out and setting: the value for `COc1ccc(-n2ccc(NC(=O)C3(c4ccccc4F)CC3)n2)c(OC)c1` [Compound 428] was above 5 µM; that for `O=C(Cc1ccc(F)cc1)Nc1ccn(-c2nccs2)n1` [Compound 91, 2-(4-fluorophenyl)-N-(1-thiazol-2-ylpyrazol-3-yl)acetamide] was 1.9 µM; that for `O=C(Cc1ccccc1F)Nc1ccn(-c2ccc(C(F)(F)F)cc2)n1` [Compound 155, 2-(2-fluorophenyl)-N-[1-[4-(trifluoromethyl)phenyl]pyrazol-3-yl]acetamide] was above 5 µM.
Consider `O=C(Nc1ccn(-c2ccnc(F)c2)n1)C1(c2ccccn2)CC1` [Compound 223, N-[1-(2-fluoro-4-pyridyl)pyrazol-3-yl]-1-(2-pyridyl)cyclopropanecarboxamide], for which the IC50 came out at 0.07 µM.
Same read-out and setting: the value for `O=C(Nc1ccn(-c2ncccn2)n1)C1(c2ccccc2F)CC1` [Compound 240, 1-(2-fluorophenyl)-N-(1-pyrimidin-2-ylpyrazol-3-yl)cyclopropanecarboxamide] was 4.4 µM; that for `O=C(Cc1ccsc1)Nc1ccn(-c2ccnc(F)c2)n1` [Compound 293, N-[1-(2-fluoro-4-pyridyl)pyrazol-3-yl]-2-(3-thienyl)acetamide] was 0.98 µM; that for `O=C(Cn1cncn1)Nc1ccn(-c2ccnc(F)c2)n1` [Compound 303, N-[1-(2-fluoro-4-pyridyl)pyrazol-3-yl]-2-(1,2,4-triazol-1-yl)acetamide] was above 5 µM.
The same measure, in the same setting: the result for `Nc1cc(-n2ccc(NC(=O)C3(c4ccccc4F)CC3)n2)ccn1` [Compound 393, N-[1-(2-amino-4-pyridyl)pyrazol-3-yl]-1-(2-fluorophenyl)cyclopropanecarboxamide] reads 1.9 µM; that for `O=C(Nc1ccn(-c2ccc(F)c(F)c2)n1)C1(c2ccccc2)CC1` [Compound 192, N-[1-(3,4-difluorophenyl)pyrazol-3-yl]-1-phenyl-cyclopropanecarboxamide], 0.6 µM; that for `O=C(Nc1ccn(-c2ccnc(F)c2)n1)C1(c2ccccc2Cl)CC1` [Compound 251, 1-(2-chlorophenyl)-N-[1-(2-fluoro-4-pyridyl)pyrazol-3-yl]cyclopropanecarboxamide], 0.11 µM.
The same measure, in the same setting: the value for `O=C(Cc1ccccc1)Nc1ccn(-c2ccncn2)n1` [Compound 209, 2-phenyl-N-(1-pyrimidin-4-ylpyrazol-3-yl)acetamide] was 2.3 µM; that for `O=C(Nc1ccn(-c2ccc(F)c(F)c2)n1)C1(c2cnccn2)CC1` [Compound 492, N-[1-(3,4-difluorophenyl)pyrazol-3-yl]-1-pyrazin-2-yl-cyclopropanecarboxamide] was above 5 µM.
Turning to `O=C(Cc1cc(F)cc(C(F)(F)F)c1)Nc1ccn(-c2ccccc2)n1` [Compound 72, 2-[3-fluoro-5-(trifluoromethyl)phenyl]-N-(1-phenylpyrazol-3-yl)acetamide], the IC50 is above 5 µM.
For the molecule `O=C(Cc1cccc(F)c1F)Nc1ccn(-c2ccccc2)n1` [Compound 60, 2-(2,3-difluorophenyl)-N-(1-phenylpyrazol-3-yl)acetamide], the IC50 was above 2 µM.
Regarding `O=C(Nc1ccn(-c2ccc(C(F)F)nc2)n1)C1(c2ccccc2F)CC1` [Compound 397, N-[1-[6-(difluoromethyl)-3-pyridyl]pyrazol-3-yl]-1-(2-fluorophenyl)cyclopropanecarboxamide], the IC50 is above 5 µM.
On the same count and under the same terms, the result for `Cc1cc(F)ccc1-n1ccc(NC(=O)C2(c3ncccc3F)CC2)n1` [Compound 450, N-(1-(4-fluoro-2-methylphenyl)-1H-pyrazol-3-yl)-1-(3-fluoropyridin-2-yl)cyclopropane-1-carboxamide] reads above 5 µM; that for `O=C(Nc1ccn(-c2ccnc(F)c2)n1)C1(c2cccc(F)c2F)CC1` [Compound 268, 1-(2,3-difluorophenyl)-N-[1-(2-fluoro-4-pyridyl)pyrazol-3-yl]cyclopropanecarboxamide], 0.14 µM; that for `Cc1ccncc1-n1ccc(NC(=O)C2(c3ccccc3F)CC2)n1` [Compound 472, 1-(2-fluorophenyl)-N-[1-(4-methyl-3-pyridyl)pyrazol-3-yl]cyclopropanecarboxamide], 0.056 µM.
Same read-out and setting: the result for `O=C(Nc1ccn(-c2ccc(F)c(F)c2)n1)C1(c2cccs2)CC1` [Compound 479, N-[1-(3,4-difluorophenyl)pyrazol-3-yl]-1-(2-thienyl)cyclopropanecarboxamide] reads 0.19 µM; that for `O=C(Nc1ccn(-c2cccnn2)n1)C1(c2ncccc2F)CC1` [Compound 458, 1-(3-fluoro-2-pyridyl)-N-(1-pyridazin-3-ylpyrazol-3-yl)cyclopropanecarboxamide], 0.94 µM.
Take `O=C(Nc1ccn(-c2ccnc(F)c2)n1)C1(c2ccc(Cl)cc2F)CC1` [Compound 262, 1-(4-chloro-2-fluoro-phenyl)-N-[1-(2-fluoro-4-pyridyl)pyrazol-3-yl]cyclopropanecarboxamide]: the IC50 came out at 0.3 µM.
The same measure, in the same setting: the result for `COc1cc(-n2ccc(NC(=O)C3(c4ncccn4)CC3)n2)ccn1` [Compound 407, N-[1-(2-methoxy-4-pyridyl)pyrazol-3-yl]-1-pyrimidin-2-yl-cyclopropanecarboxamide] reads above 5 µM.

The same test, now with this note: average of one or more replicates; 13C-labeled C26:0 LPC, 48 hours; read-out: Average HEK293 IC50.
For the molecule `O=C(Nc1ccn(-c2ccncc2)n1)C1(c2ccccc2)CC1(F)F` (single isomer, unassigned) [Compound 434], the IC50 turned out to be 0.34 µM.
Same read-out and setting: the value for `O=C(Nc1ccn(-c2cccc(Cl)c2)n1)C1(c2ccccc2)CC1(F)F` (single isomer, unassigned) [Compound 438] was 0.54 µM.
